Like-named read-outs stand apart in the source and are kept apart here.
Legend:
human TLR8 = human TLR8 (Homo sapiens (Human), UniProt Q9NR97); test: TLR8 inhibition reporter assay (HEK-Blue cells, SEAP reporter, R848 stimulation);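 further: compounds tested from 0.05 nM to 50 µM, 22 h at 37 °C, SEAP measured with HEK-Blue Detection, inhibition relative to agonist plus DMSO versus a known inhibitor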
human TLR7 = human TLR7 (Homo sapiens (Human), UniProt Q9NYK1); test: TLR7 inhibition reporter assay (HEK-Blue cells, SEAP reporter, gardiquimod stimulation); assay type: cell-based
human TLR9 = human TLR9 (Homo sapiens (Human), UniProt Q9NR96); test: TLR9 inhibition reporter assay (HEK-Blue cells, SEAP reporter, ODN2006 stimulation);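 further: compounds tested over 0.05 nM to 50 µM, 22 h incubation, inhibition taken as SEAP signal drop from agonist plus DMSO wells toward a known inhibitor control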
[1] = read-out: TLR8 IC50, HEK-Blue cells, R848 15.9 μM
[2] = HEK-Blue cells, gardiquimod 7.5 μM
[3] = read-out: TLR9 IC50, HEK-Blue cells, ODN2006 5 nM
[4] = read-out: TLR8 IC50, HEK-Blue cells overexpressing human TLR8, R848 15.9 μM
[5] = HEK-Blue cells overexpressing human TLR7, gardiquimod 7.5 μM
[6] = read-out: TLR9 IC50, HEK-Blue cells overexpressing human TLR9, ODN2006 5 nM

human TLR8, sequence (Q9NR97 27-1041): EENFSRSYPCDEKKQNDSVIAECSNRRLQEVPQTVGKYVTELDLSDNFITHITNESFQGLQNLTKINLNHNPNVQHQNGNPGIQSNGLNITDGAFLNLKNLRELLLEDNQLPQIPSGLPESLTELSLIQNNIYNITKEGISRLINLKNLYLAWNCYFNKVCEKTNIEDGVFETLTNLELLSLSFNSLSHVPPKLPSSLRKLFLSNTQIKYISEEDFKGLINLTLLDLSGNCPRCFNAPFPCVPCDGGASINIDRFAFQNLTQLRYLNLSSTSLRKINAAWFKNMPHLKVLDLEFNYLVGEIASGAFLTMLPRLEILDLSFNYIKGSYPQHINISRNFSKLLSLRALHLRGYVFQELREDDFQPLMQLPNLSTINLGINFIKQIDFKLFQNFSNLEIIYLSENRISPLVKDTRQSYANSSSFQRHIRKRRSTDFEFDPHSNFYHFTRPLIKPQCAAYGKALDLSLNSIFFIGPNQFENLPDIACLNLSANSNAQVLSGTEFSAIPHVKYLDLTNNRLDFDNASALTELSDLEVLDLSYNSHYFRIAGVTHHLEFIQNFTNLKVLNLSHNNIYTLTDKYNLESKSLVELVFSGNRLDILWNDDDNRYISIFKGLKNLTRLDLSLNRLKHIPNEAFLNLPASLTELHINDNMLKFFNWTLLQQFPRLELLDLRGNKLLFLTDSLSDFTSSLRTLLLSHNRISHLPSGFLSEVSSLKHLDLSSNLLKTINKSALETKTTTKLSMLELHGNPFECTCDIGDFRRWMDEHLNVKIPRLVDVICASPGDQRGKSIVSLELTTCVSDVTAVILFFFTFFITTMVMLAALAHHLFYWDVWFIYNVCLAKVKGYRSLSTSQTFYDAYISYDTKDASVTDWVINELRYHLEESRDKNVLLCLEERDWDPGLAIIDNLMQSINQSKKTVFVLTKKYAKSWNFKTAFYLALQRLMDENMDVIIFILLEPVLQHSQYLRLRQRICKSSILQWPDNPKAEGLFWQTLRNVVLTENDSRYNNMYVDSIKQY
human TLR7, sequence (Q9NYK1 27-1049): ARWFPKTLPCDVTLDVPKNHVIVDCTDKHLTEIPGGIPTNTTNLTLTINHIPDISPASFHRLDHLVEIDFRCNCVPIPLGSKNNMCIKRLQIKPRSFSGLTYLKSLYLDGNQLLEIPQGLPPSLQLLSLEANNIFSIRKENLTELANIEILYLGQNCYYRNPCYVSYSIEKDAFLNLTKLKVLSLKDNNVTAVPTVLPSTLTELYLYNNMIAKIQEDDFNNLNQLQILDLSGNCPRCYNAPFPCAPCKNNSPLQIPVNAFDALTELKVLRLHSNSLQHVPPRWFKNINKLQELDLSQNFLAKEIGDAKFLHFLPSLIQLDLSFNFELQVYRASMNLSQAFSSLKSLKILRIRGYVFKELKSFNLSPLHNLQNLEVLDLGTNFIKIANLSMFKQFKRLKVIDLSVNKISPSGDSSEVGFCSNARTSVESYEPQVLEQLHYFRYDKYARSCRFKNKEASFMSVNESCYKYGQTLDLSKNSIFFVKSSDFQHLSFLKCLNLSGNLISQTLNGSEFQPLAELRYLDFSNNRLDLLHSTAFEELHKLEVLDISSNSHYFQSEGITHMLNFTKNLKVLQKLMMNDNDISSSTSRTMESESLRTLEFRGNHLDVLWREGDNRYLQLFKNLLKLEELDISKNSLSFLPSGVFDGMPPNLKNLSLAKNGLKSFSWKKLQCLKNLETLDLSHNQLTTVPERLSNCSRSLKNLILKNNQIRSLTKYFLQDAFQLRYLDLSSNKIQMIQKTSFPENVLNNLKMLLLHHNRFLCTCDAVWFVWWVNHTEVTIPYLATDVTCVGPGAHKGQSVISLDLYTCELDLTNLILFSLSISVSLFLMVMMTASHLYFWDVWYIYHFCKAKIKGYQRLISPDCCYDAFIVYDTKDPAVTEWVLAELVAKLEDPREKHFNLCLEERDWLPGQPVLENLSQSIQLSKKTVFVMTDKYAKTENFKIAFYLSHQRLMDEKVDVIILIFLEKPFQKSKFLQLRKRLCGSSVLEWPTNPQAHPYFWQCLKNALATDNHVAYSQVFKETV
human TLR9, sequence (Q9NR96 26-1032): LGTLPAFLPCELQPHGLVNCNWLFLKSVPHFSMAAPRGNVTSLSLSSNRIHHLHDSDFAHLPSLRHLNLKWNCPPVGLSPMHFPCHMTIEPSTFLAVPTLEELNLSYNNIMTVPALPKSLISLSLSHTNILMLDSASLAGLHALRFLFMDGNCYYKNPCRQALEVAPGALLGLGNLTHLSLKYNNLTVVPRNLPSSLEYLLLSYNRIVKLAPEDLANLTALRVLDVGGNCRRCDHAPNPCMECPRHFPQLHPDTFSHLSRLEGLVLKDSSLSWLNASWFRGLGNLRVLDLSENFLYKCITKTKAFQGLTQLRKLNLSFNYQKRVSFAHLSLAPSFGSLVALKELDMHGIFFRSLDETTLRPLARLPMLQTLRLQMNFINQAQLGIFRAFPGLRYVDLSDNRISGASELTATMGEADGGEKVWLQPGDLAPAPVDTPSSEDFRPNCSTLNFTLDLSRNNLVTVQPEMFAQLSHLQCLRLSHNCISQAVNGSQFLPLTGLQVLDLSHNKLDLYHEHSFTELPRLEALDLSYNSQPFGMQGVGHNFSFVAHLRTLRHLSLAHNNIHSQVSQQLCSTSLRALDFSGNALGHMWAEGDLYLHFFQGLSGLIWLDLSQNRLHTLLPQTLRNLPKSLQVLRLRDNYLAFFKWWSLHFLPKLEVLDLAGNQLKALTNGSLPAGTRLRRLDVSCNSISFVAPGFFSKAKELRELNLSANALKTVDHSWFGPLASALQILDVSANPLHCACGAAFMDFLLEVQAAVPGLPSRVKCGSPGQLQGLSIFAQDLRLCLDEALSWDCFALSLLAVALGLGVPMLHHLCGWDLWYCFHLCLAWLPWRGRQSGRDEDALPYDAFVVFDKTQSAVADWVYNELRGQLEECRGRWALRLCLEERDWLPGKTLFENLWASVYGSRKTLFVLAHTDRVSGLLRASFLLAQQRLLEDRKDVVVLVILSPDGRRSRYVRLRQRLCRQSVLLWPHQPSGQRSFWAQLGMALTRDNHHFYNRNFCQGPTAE

Structure (SMILES): Cc1cc(-c2[nH]c3cc(F)c(C4CCN(CC(=O)N(C)C)CC4)cc3c2C(C)C)c(C)cn1 [Example 835, 2-(4-(2-(2,5-dimethylpyridin-4-yl)-6-fluoro-3-isopropyl-1H-indol-5-yl)piperidin-1-yl)-N,N-dimethylacetamide]
- IC50 (human TLR8; [1]): 3.4 nM
- IC50 (human TLR7; [2]): 2.9 nM
- IC50 (human TLR9; [3]): 1950 nM

Structure (SMILES): Cc1cc(-c2[nH]c3ccc(C4CCN(C(=O)CN(CCO)Cc5ccc(F)cc5)CC4)cc3c2C(C)C)cc(C)n1 [Example 407, 1-(4-(2-(2,6-dimethylpyridin-4-yl)-3-isopropyl-1H-indol-5-yl)piperidin-1-yl)-2-((4-fluorobenzyl)(2-hydroxyethyl)amino)ethan-1-one]
- IC50 (human TLR8; [4]): 71 nM
- IC50 (human TLR7; [5]): 7 nM
- IC50 (human TLR9; [6]): 495 nM

Structure (SMILES): CCc1c(-c2ccnc(-n3ccnc3)c2)[nH]c2ccc(C3CCNCC3)cc12 [Example 67, 2-(2-(1H-imidazol-1-yl)pyridin-4-yl)-3-ethyl-5-(piperidin-4-yl)-1H-indole]
- IC50 (human TLR8; [4]): 9 nM
- IC50 (human TLR7; [5]): 1010 nM
- IC50 (human TLR9; [6]): 396 nM

Structure (SMILES): CNCCN1CCC(c2ccc3[nH]c(-c4cc(C)nc(C)c4)c(CC(F)F)c3c2)CC1 [Example 541, 2-(4-(3-(2,2-difluoroethyl)-2-(2,6-dimethylpyridin-4-yl)-1H-indol-5-yl)piperidin-1-yl)-N-methylethan-1-amine]
- IC50 (human TLR8; [4]): 22.2 nM
- IC50 (human TLR7; [5]): 11.5 nM
- IC50 (human TLR9; [6]): 110 nM

Structure (SMILES): Cc1cc(-c2[nH]c3ccc(C4CCN(C(=O)CN(C)[C@@H]5CCOC5)CC4)cc3c2C(C)C)cc(C)n1 [Example 402, (R)-1-(4-(2-(2,6-dimethylpyridin-4-yl)-3-isopropyl-1H-indol-5-yl)piperidin-1-yl)-2-(methyl(tetrahydrofuran-3-yl)amino) ethan-1-one]
- IC50 (human TLR8; [4]): 61.1 nM
- IC50 (human TLR7; [5]): 11.1 nM
- IC50 (human TLR9; [6]): 1820 nM

Structure (SMILES): Cc1cc(-c2[nH]c3ccc(C4CCN(C(=O)CN(C)C(C)C)CC4)cc3c2C(C)C)cc(C)n1 [Example 354, 1-(4-(2-(2,6-dimethylpyridin-4-yl)-3-isopropyl-1H-indol-5-yl)piperidin-1-yl)-2-(isopropyl(methyl)amino)ethan-1-one]
- IC50 (human TLR8; [4]): 11.2 nM
- IC50 (human TLR7; [5]): 3.5 nM
- IC50 (human TLR9; [6]): 447 nM

Structure (SMILES): Cc1cc(-c2[nH]c3ccc(C4CCN(C(=O)CCCN(C)C)CC4)cc3c2C(C)C)cc(C)n1 [Example 111, 4-(dimethylamino)-1-(4-(2-(2,6-dimethylpyridin-4-yl)-3-isopropyl-1H-indol-5-yl)piperidin-1-yl)butan-1-one]
- IC50 (human TLR8; [4]): 255 nM
- IC50 (human TLR7; [5]): 75.9 nM
- IC50 (human TLR9; [6]): 12900 nM

Structure (SMILES): Cc1cc(-c2[nH]c3ccc(C4CCN(CC(=O)N5C[C@H](C)C[C@@H]5CO)CC4)cc3c2C(C)C)cc(C)n1 [Example 290, 2-(4-(2-(2,6-dimethylpyridin-4-yl)-3-isopropyl-1H-indol-5-yl)piperidin-1-yl)-1-((2R,4R)-2-(hydroxymethyl)-4-methylpyrrolidin-1-yl) ethan-1-one]
- IC50 (human TLR8; [4]): 66.8 nM
- IC50 (human TLR7; [5]): 12 nM
- IC50 (human TLR9; [6]): 870 nM

Structure (SMILES): Cc1cc(-c2[nH]c3ccc(C4CCN(C=O)CC4)cc3c2C(C)C)cc(C)n1 [Example 862, 4-(2-(2,6-dimethylpyridin-4-yl)-3-isopropyl-1H-indol-5-yl)piperidine-1-carbaldehyde]
- IC50 (human TLR8; [1]): 120 nM
- IC50 (human TLR7; [2]): 5.1 nM
- IC50 (human TLR9; [3]): > 50000 nM

Structure (SMILES): CO[C@@H]1C[C@H](CO)N(C(=O)CN2CCC(c3ccc4[nH]c(-c5cc(C)nc(C)c5)c(C(C)C)c4c3)CC2)C1 [Example 292, 2-(4-(2-(2,6-dimethylpyridin-4-yl)-3-isopropyl-1H-indol-5-yl)piperidin-1-yl)-1-((2R,4R)-2-(hydroxymethyl)-4-methoxypyrrolidin-1-yl)ethan-1-one]
- IC50 (human TLR8; [4]): 12.3 nM
- IC50 (human TLR7; [5]): 3.1 nM
- IC50 (human TLR9; [6]): 365 nM

Structure (SMILES): Cc1cc(-c2[nH]c3ccc(C4CCN(CC(=O)NCC5CC5)CC4)cc3c2C(C)C)cc(C)n1 [Example 223, N-(cyclopropylmethyl)-2-(4-(2-(2,6-dimethylpyridin-4-yl)-3-isopropyl-1H-indol-5-yl)piperidin-1-yl)acetamide]
- IC50 (human TLR8; [4]): 10.7 nM
- IC50 (human TLR7; [5]): 3.7 nM
- IC50 (human TLR9; [6]): 1160 nM

Structure (SMILES): Cc1cc(-c2[nH]c3ccc(C4CCN(C(=O)Cn5ccc(C(F)(F)F)n5)CC4)cc3c2C(C)C)cc(C)n1 [Example 156, 1-(4-(2-(2,6-dimethylpyridin-4-yl)-3-isopropyl-1H-indol-5-yl)piperidin-1-yl)-2-(3-(trifluoromethyl)-1H-pyrazol-1-yl)ethan-1-one]
- IC50 (human TLR8; [4]): 187 nM
- IC50 (human TLR7; [5]): 29.9 nM
- IC50 (human TLR9; [6]): 18600 nM

Structure (SMILES): Cc1cc(-c2[nH]c3ccc(C4CCN(CC(C)(C)C(=O)O)CC4)cc3c2C(C)C)cc(C)n1 [Example 321, 3-(4-(2-(2,6-dimethylpyridin-4-yl)-3-isopropyl-1H-indol-5-yl)piperidin-1-yl)-2,2-dimethylpropanoic acid]
- IC50 (human TLR8; [4]): 68.5 nM
- IC50 (human TLR7; [5]): 17.1 nM
- IC50 (human TLR9; [6]): > 50000 nM

Structure (SMILES): CNCCN1CCC(c2ccc3[nH]c(-c4ccnc(C)c4)c(C)c3c2)CC1 [Example 815, N-methyl-2-(4-(3-methyl-2-(2-methylpyridin-4-yl)-1H-indol-5-yl)piperidin-1-yl)ethan-1-amine]
- IC50 (human TLR8; [1]): 73.4 nM
- IC50 (human TLR7; [2]): 124 nM
- IC50 (human TLR9; [3]): 313 nM

Structure (SMILES): CCc1c(-c2ccnc(OC)c2)[nH]c2ccc(C3CCN(C4CCN(CC(C)C)CC4)CC3)cc12 [Example 780, 3-ethyl-5-(1′-isobutyl-[1,4′-bipiperidin]-4-yl)-2-(2-methoxypyridin-4-yl)-1H-indole]
- IC50 (human TLR8; [4]): 81.1 nM
- IC50 (human TLR7; [5]): 502 nM
- IC50 (human TLR9; [6]): 412 nM

Structure (SMILES): Cc1cc(-c2[nH]c3ccc(C4CCN(C(=O)CC5CCOCC5)CC4)cc3c2C(C)C)cc(C)n1 [Example 106, 1-(4-(2-(2,6-dimethylpyridin-4-yl)-3-isopropyl-1H-indol-5-yl)piperidin-1-yl)-2-(tetrahydro-2H-pyran-4-yl)ethan-1-one]
- IC50 (human TLR8; [4]): 67.4 nM
- IC50 (human TLR7; [5]): 8.2 nM
- IC50 (human TLR9; [6]): 30600 nM

Structure (SMILES): CCc1c(-c2ccnc(C)c2)[nH]c2ccc(C3CCN(CC4CCN(C(C)C)CC4)CC3)cc12 [Example 675, 3-ethyl-5-(1-((1-isopropylpiperidin-4-yl)methyl)piperidin-4-yl)-2-(2-methylpyridin-4-yl)-1H-indole]
- IC50 (human TLR8; [4]): 11.9 nM
- IC50 (human TLR7; [5]): 44.7 nM
- IC50 (human TLR9; [6]): 42 nM

Structure (SMILES): Cc1cc(-c2[nH]c3ccc(C4CCN(CC5(C)COC5)CC4)cc3c2C(C)C)ccn1 [Example 867, 3-isopropyl-5-(1-((3-methyloxetan-3-yl)methyl)piperidin-4-yl)-2-(2-methylpyridin-4-yl)-1H-indole]
- IC50 (human TLR8; [1]): 3.7 nM
- IC50 (human TLR7; [2]): 16.3 nM
- IC50 (human TLR9; [3]): 794 nM

Structure (SMILES): Cc1cc(-c2[nH]c3ccc(C4CCN(C(=O)CN5CC(=O)NC5=O)CC4)cc3c2C(C)C)cc(C)n1 [Example 151, 1-(2-(4-(2-(2,6-dimethylpyridin-4-yl)-3-isopropyl-1H-indol-5-yl)piperidin-1-yl)-2-oxoethyl)imidazolidine-2,4-dione]
- IC50 (human TLR8; [4]): 83.8 nM
- IC50 (human TLR7; [5]): 15 nM
- IC50 (human TLR9; [6]): 46700 nM

Structure (SMILES): Cc1cc(-c2[nH]c3ccc(C4CCN(C(=O)[C@@H]5C[C@@H](F)CN5)CC4)cc3c2C(C)C)cc(C)n1 [Example 190, (4-(2-(2,6-dimethylpyridin-4-yl)-3-isopropyl-1H-indol-5-yl)piperidin-1-yl)((2S,4R)-4-fluoropyrrolidin-2-yl)methanone]
- IC50 (human TLR8; [4]): 9.6 nM
- IC50 (human TLR7; [5]): 1.6 nM
- IC50 (human TLR9; [6]): 281 nM
